Assay: logP determination by HPLC on a reversed-phase column (C 18), EEC Directive 79/831 Annex V.A8
Conditions: not given
Procedure: Temperature: 40° C.; Mobile phases: 0.1% aqueous formic acid and acetonitrile; linear gradient from 10% acetonitrile to 90% acetonitrile.

SMILES	LogP
Cc1nnnn1C(=NOCc1nsc(N)n1)c1cccc(Cl)c1 [Compound 65, O-(5-Amino-1,2,4-thiadiazol-3-yl)methyl-(3-chlorophenyl-5-methyltetrazol-1-yl)methanone oxime]	2.17

Same assay, conditions: HPLC reversed-phase C18, 40° C., 0.1% aqueous formic acid and acetonitrile, gradient 10% to 90% acetonitrile

SMILES	LogP
Cc1nnnn1C(Cc1ccccc1)=NOCc1csc(NC(=O)C2CC2)n1 [Compound 1]	2.56
CCCC(=O)Nc1nc(CON=C(Cc2ccccc2)n2nnnc2C)cs1 [Compound 2]	2.73
Cc1nnnn1C(Cc1ccccc1)=NOCc1csc(NC(=S)NCc2ccccc2)n1 [Compound 3]	3.64
Cc1nnnn1C(Cc1ccccc1)=NOCc1csc(NC(=O)NC(C)(C)C)n1 [Compound 4]	2.91
CCCCCNC(=O)Nc1nc(CON=C(Cc2ccccc2)n2nnnc2C)cs1 [Compound 5]	3.18
Cc1nnnn1C(Cc1ccccc1)=NOCc1csc(NC(=O)Cc2ccccc2)n1 [Compound 6]	3.06
Cc1nnnn1C(Cc1ccccc1)=NOCc1csc(NC(=O)C(C)(C)C)n1 [Compound 7]	3.15
CCCCCC(=O)Nc1nc(CON=C(Cc2ccccc2)n2nnnc2C)cs1 [Compound 8]	3.3
Cc1nnnn1C(Cc1ccccc1)=NOCc1csc(NC(=O)CCCc2ccccc2)n1 [Compound 9]	3.61
Cc1nnnn1C(Cc1ccccc1)=NOCc1csc(NC(=O)C2CCCC2)n1 [Compound 11]	3.18
CCCCCC(=O)Nc1cccc(CON=C(CCc2ccccc2)n2nnnc2C)n1 [Compound 17]	3.84
COc1ccc(C(=O)Nc2cccc(CON=C(C3CCCCC3)n3nnnc3C)n2)cc1 [Compound 24]	3.99
COc1ccc(OC(=O)Nc2cccc(CON=C(C3CCCCC3)n3nnnc3C)n2)cc1 [Compound 26]	4.16
CCCCCOC(=O)Nc1cccc(CON=C(C2CCCCC2)n2nnnc2C)n1 [Compound 29]	5
Cc1nnnn1C(=NOCc1cccc(NC(=O)C(C)(C)C)n1)C1CCCCC1 [Compound 30]	3.96
CCCC(=O)Nc1cccc(CON=C(C2CCCCC2)n2nnnc2C)n1 [Compound 33]	3.55
COCCNC(=O)Nc1cccc(CON=C(C2CCCCC2)n2nnnc2C)n1 [Compound 38]	2.78

SMILES	LogP
Cc1nnnn1C(=NOCc1cccc(N)n1)C1CC1 [Compound 41]	0.87
Cc1nnnn1C(=NOCc1cccc(NC(=O)NCCc2ccc(F)cc2)n1)C1CC1 [Compound 44]	2.5
Cc1nnnn1C(=NOCc1cccc(NC(=O)NC2CC2)n1)C1CC1 [Compound 46]	1.88
Cc1nnnn1C(=NOCc1cccc(NC(=O)C2CC2)n1)C1CC1 [Compound 48]	2.11
CCCNC(=O)Nc1cccc(CON=C(C2CC2)n2nnnc2C)n1 [Compound 50]	2.09
COc1ccc(CCNC(=O)Nc2cccc(CON=C(C3CC3)n3nnnc3C)n2)cc1 [Compound 51]	2.44
Cc1ccc(C(=NOCc2nsc(N)n2)c2nnnn2C)cc1 [Compound 68]	2.07
Cc1ccc(C(=NOCc2nsc(NC(=O)Cc3ccccc3)n2)c2nnnn2C)cc1 [Compound 69]	3.22
CCCCCC(=O)Nc1cccc(CON=C(c2nnnn2C)C2CCCCC2)n1 [Compound 71]	4.25
Cn1nnnc1C(=NOCc1cccc(NC(=O)C2CC2)n1)C1CCCCC1 [Compound 73]	3.2
Cn1nnnc1C(=NOCc1cccc(NC(=O)C(F)(F)F)n1)C1CCCCC1 [Compound 76]	3.69
Cn1nnnc1C(=NOCc1nccc(N)n1)c1ccccc1 [Compound 77]	0.92
CCCCCC(=O)Nc1ccnc(CON=C(c2ccccc2)c2nnnn2C)n1 [Compound 78]	3.46
Cn1nnnc1C(=NOCc1nccc(NC(=O)C(C)(C)C)n1)c1ccccc1 [Compound 79]	3.06
Cn1nnnc1C(=NOCc1nccc(NC(=O)C2CC2)n1)c1ccccc1 [Compound 80]	2.5
CC(C)C(=O)Nc1ccnc(CON=C(c2ccccc2)c2nnnn2C)n1 [Compound 81]	2.68
CC(C)CC(=O)Nc1ccnc(CON=C(c2ccccc2)c2nnnn2C)n1 [Compound 82]	3

Same assay, conditions: reversed-phase C18 HPLC column

chromatographic logP	SMILES
3.46	Cc1nnnn1/C(=N/OCc1cccc(N2C(=O)c3ccccc3C2=O)n1)C1CCCCC1 [Compound 22, O-(2-Phtalimidopyridin-6-yl)methyl-(5-methyltetrazol-1-yl)-cyclohexylmethanone oxime]
1.43	Cc1nnnn1/C(=N/OCc1cccc(N)n1)C1CCCCC1 [Compound 23, O-(2-Aminopyridin-6-yl)methyl-(5-methyltetrazol-1-yl)-cyclohexylmethanone oxime]
4.39	CCCCCC(=O)Nc1cccc(CO/N=C(\C2CCCCC2)n2nnnc2C)n1 [Compound 27, O-(2-n-Pentylcarbonylaminopyridin-6-yl)methyl-(5-methyltetrazol-1-yl)-cyclohexylmethanone oxime]

— patent US8119646B2, “Fungicide hydroximoyl-tetrazole derivatives” (Bayer CropScience AG, priority 2006, dated 2012)
